For series [1] the following is noted: in humans; cited from earlier work.
Series [2] is described as follows: Pharmacokinetic evaluation after subcutaneous injection into rats. In kind it is in vivo. On the procedure:
The pharmacokinetic evaluation of the GS-441524-containing PLGA microspheres of Example F3 according to the disclosure was carried out. Rats as test animals were randomly divided into test and control groups, with 5 animals in each group, and raised under the same conditions while predetermined amounts of solid food and water were supplied for 7 days. The rats were fasted for 12 hours before testing, and then used for testing.
The test group was subcutaneously administered GS-441524 at a dose corresponding to 28 mg/kg by using the PLGA microspheres of Example F3 of the disclosure, and the control group was subcutaneously administered 28 mg/kg GS-441524 alone. Approximately 300 μL of blood was collected by retro-orbital bleeding 1, 2, 4, 8, 12, 24, 48, 72, 96, 120, and 144 hours after the subcutaneous injection to the rats. Each of the obtained samples was centrifuged at 15,000 rpm for 5 minutes to separate the plasma, and then stored at −70° C. before analysis.
Plasma sample pre-treatment was performed using a deproteination method. After 100 μL of a plasma sample was taken, 200 μL of methanol (the internal standard substance 10 ng/MI verapamil) was added thereto, followed by mixing for 10 minutes and then extraction. The extract was centrifuged at 17,000 rpm for 10 minutes, and then the supernatant was collected and analyzed using LC-MS/MS to quantify GS-441524 in the blood.

[3] abbreviates: rat, plasma, sc, 28 mg/kg GS-441524.

Results on one compound are retold here after US20260165968A1, “SUSTAINED-RELEASE PLGA MICROSPHERE CONTAINING GS-441524, AND METHOD FOR PRODUCING SAME” (THE INDUSTRY & ACADEMIC COOPERATION IN CHUNGNAM NATIONAL …, priority 2022, published 2026).

For orientation: half-life means the time needed for the level to fall by half in the phase considered. What is called Cmax is the peak of the concentration-time curve.

Read-outs that look alike come from different tables or passages of the source.

For the compound `N#C[C@@]1(c2ccc3c(N)ncnn23)O[C@H](CO)[C@@H](O)[C@H]1O` [GS-441524, (2R,3R,4S,5R)-2-(4-aminopyrrolo[2,1-f][1,2,4]triazin-7-yl)-3,4-dihydroxy-5-(hydroxymethyl) oxolane-2-carbonitrile], the half-life entry in series [1] is given as “about 24 hours”. Moreover, in series [2] (28 mg/kg GS-441524), the Cl was 17.32 ± 9.32 mL/min/kg and the Vz is 81.261 ± 84.077 L/kg. Also, in series [2] (setting [3]), the peak level (Cmax) was 8170 ± 4080 ng/mL and the half-life was 61.5 ± 66.2 h. Also, the AUC(0-t) in series [2] (rat, plasma, sc, 28 mg/kg GS-441524, read-out: AUC0→144) was determined as 31600 ± 14300 ng·h/mL.
